Reference: US11001561B2, “Pyrimidinone derivatives as SHP2 antagonists” (MERCK PATENT GMBH, priority 2019, dated 2021)
pIC50: −log10 of the molar value.

target: Full length SHP2 protein (Recombinant Human SHP-2) (Homo sapiens (Human), UniProt Q06124); experiment: SHP2 biochemical assay (DiFMUP substrate, activating peptide IRSI_2pY); conditions: SHP-2 biochemical assay IC50 (μM), activating peptide IRSI_2pY 140 nM, DiFMUP, 60 min
Procedure: The inhibition of SHP2 by compounds of the invention was monitored using the surrogate substrate DiFMUP after protein activation by a peptide bearing two appropriately spaced phosphotyrosine. […] The generation of the DiFMU product by activated SHP2 was monitored through Fluorescence measurement with a PerkinElmer Envision reader. The inhibitor dose response curves were analyzed with Genedata Screener.

Compound | IC50 [µM]
Cc1nc(C2=CC[C@@](C)(N)CC2)cc(=O)n1-c1cccc(Cl)c1Cl (racemic) [Compound 6a, (+/−)-(3M)-6-[(4S)-4-amino-4-methylcyclohex-1-en-1-yl]-3-(2,3-dichlorophenyl)-2-methyl-3,4-dihydropyrimidin-4-one] | 19
Cc1nc(N2CCC[C@](N)(CC(F)F)CC2)cc(=O)n1-c1cccc(Cl)c1Cl (racemic) [Compound 58a, (+/−)-(3M)-6-4-[(1R)-4-amino-4-(2,2-difluoroethyl)-azepan-1-yl]-3-(2,3-dichlorophenyl)-2-methyl-3,4-dihydropyrimidin-4-one] | > 10
Cc1nc(C2=CC[C@@](C)(N)CC2)cc(=O)n1-c1cccc(Cl)c1Cl (racemic) [Compound 6b, (+/−)-(3P)-6-[(4S)-4-amino-4-methylcyclohex-1-en-1-yl]-3-(2,3-dichlorophenyl)-2-methyl-3,4-dihydropyrimidin-4-one] | > 10
Cc1nc(N2CCC[C@](N)(CC(F)F)CC2)cc(=O)n1-c1cccc(Cl)c1Cl (racemic) [Compound 58b, (+/−)-(3P)-6-4-[(1R)-4-amino-4-(2,2-difluoroethyl)-azepan-1-yl]-3-(2,3-dichlorophenyl)-2-methyl-3,4-dihydropyrimidin-4-one] | 1.3
Cc1nc(N2CCC3(CC2)CO[C@@H](C)[C@H]3N)cc(=O)n1-c1c(F)ccc(Cl)c1Cl (single isomer, unassigned) [Compound 32b] | 1.9
Cc1nc(N2CCC(C)(N3CC[C@H](O)C3)CC2)cc(=O)n1-c1cccc(Cl)c1Cl (single isomer, unassigned) [Compound 72a] | > 10
Cc1nc(N(C)[C@H]2CC[C@](C)(N)CC2)cc(=O)n1-c1cccc(Cl)c1Cl (single isomer, unassigned) [Compound 71a, 3-(2,3-dichlorophenyl)-2-methyl-6-{methyl[(trans)-4-amino-4-methylcyclohexyl]amino}-3,4-dihydropyrimidin-4-one] | > 50
Cc1nc(N2CC[C@@H](N)[C@@H](O)C2)cc(=O)n1-c1cccc(Cl)c1Cl (racemic) [Compound 30, (+/−)-6-[(3S,4R)-4-amino-3-hydroxypiperidin-1-yl]-3-(2,3-dichlorophenyl)-2-methyl-3,4-dihydropyrimidin-4-one] | 13
Cc1nc(N2CCC(C)([C@H](O)CN)CC2)cc(=O)n1-c1cccc(Cl)c1Cl (racemic) [Compound 57a, (+/−)-(3M)-6-{4-[(1S)-2-amino-1-hydroxyethyl]-4-methylpiperidin-1-yl}-3-(2,3-dichlorophenyl)-2-methyl-3,4-dihydropyrimidin-4-one] | > 10
Cc1nc(N2CCC(C)([C@H](O)CN)CC2)cc(=O)n1-c1cccc(Cl)c1Cl (racemic) [Compound 57b, (+/−)-(3P)-6-{4-[(1S)-2-amino-1-hydroxyethyl]-4-methylpiperidin-1-yl}-3-(2,3-dichlorophenyl)-2-methyl-3,4-dihydropyrimidin-4-one] | 3

same assay, conditions: activating peptide IRSI_2pY 140 nM, DiFMUP, 60 min; read-out: SHP-2 biochemical assay IC50

pIC50 | Compound
5.32 | Cc1nc(N2CCC3(CC2)CO[C@@H](C)[C@H]3N)cc(=O)n1-c1ccccc1 [Compound 7, 6-[(3S,4S)-4-amino-3-methyl-2-oxa-8-azaspiro[4.5]decan-8-yl]-2-methyl-3-phenyl-3,4-dihydropyrimidin-4-one]
< 5.00 | Cc1c(N2CCC(C)(N)CC2)nc(C)n(-c2ccc3ccccc3c2)c1=O [Compound 39, 6-(4-Amino-4-methyl-piperidin-1-yl)-2,5-dimethyl-3-naphthalen-2-yl-3H-pyrimidin-4-one]
5.96 | Nc1nc(N2CCC3(CC2)CC(F)(F)C[C@H]3N)cc(=O)n1-c1cccc(Cl)c1Cl [Compound 8, 2-amino-6-[(1R)-1-amino-3,3-difluoro-8-azaspiro[4.5]decan-8-yl]-3-(2,3-dichlorophenyl)-3,4-dihydropyrimidin-4-one]
6.25 | Cc1nc(N2CCC(C)(NCC3CCC(O)CC3)CC2)cc(=O)n1-c1cccc(Cl)c1Cl (centres unmarked) [Compound 50, 3-(2,3-dichlorophenyl)-6-(4-{[(4-hydroxycyclohexyl)methyl]amino}-4-methylpiperidin-1-yl)-2-methyl-3,4-dihydropyrimidin-4-one]
5.37 | Cc1nc(N2CCC(CO)(CCN)CC2)cc(=O)n1-c1cccc(Cl)c1Cl [Compound 16, 6-[4-(2-aminoethyl)-4-(hydroxymethyl)piperidin--yl]-3-(2,3-dichlorophenyl)-2-methyl-3,4-dihydropyrimidin-4-one]
4.80 | Cc1nc(C2=CCC(C)(CN)CC2)cc(=O)n1-c1cccc(Cl)c1Cl (centres unmarked) [Compound 9, 6-[4-(aminomethyl)-4-methylcyclohex-1-en-1-yl]-3-(2,3-dichlorophenyl)-2-methyl-3,4-dihydropyrimidin-4-one]
< 5.00 | Cc1c(N2CCc3cc(N)ccc3C2)nc(C)n(-c2cccc(Cl)c2Cl)c1=O [Compound 83, 6-(6-amino-1,2,3,4-tetrahydroisoquinolin-2-yl)-3-(2,3-dichlorophenyl)-2,5-dimethyl-3,4-dihydropyrimidin-4-one]
< 5.00 | Cc1c(N2CCC(C)(CN)CC2)nc(C)n(-c2ccc3nccnc3c2)c1=O [Compound 55, 6-(4-Aminomethyl-4-methyl-piperidin-1-yl)-2,5-dimethyl-3-quinoxalin-6-yl-3H-pyrimidin-4-one]
5.07 | CSc1nc(N2CCC(C)(N)CC2)cc(=O)n1-c1cccc(Cl)c1Cl [Compound 1, 6-(4-amino-4-methylpiperidin-1-yl)-3-(2,3-dichlorophenyl)-2-(methylsulfanyl)-3,4-dihydropyrimidin-4-one]
< 5.00 | Cc1c(N2CCC(C)(N)CC2)nc(C)n(-c2cccc3ncsc23)c1=O [Compound 43, 6-(4-Amino-4-methyl-piperidin-1-yl)-3-benzothiazol-7-yl-2,5-dimethyl-3H-pyrimidin-4-one]
5.96 | Cc1nc(N2CCC(C)(N)CC2)c(Cl)c(=O)n1-c1cccc(Cl)c1Cl [Compound 10, 6-(4-amino-4-methylpiperidin-1-yl)-5-chloro-3-(2,3-dichlorophenyl)-2-methyl-3,4-dihydropyrimidin-4-one]
5.42 | Cc1c(N2CCCC(N)(CC(C)O)CC2)nc(C)n(-c2cccc(Cl)c2Cl)c1=O (centres unmarked) [Compound 115, (3M)-6-[4-amino-4-(2-hydroxypropyl)azepan-1-yl]-3-(2,3-dichlorophenyl)-2,5-dimethyl-3,4-dihydropyrimidin-4-one]
6.23 | Cc1c(N2CCC(CN)(CO)CC2)nc(C)n(-c2cccc(Cl)c2Cl)c1=O [Compound 88, 6-[4-(aminomethyl)-4-(hydroxymethyl)piperidin-1-yl]-3-(2,3-dichlorophenyl)-2,5-dimethyl-3,4-dihydropyrimidin-4-one]
5.46 | Cc1nc(N2CCC(O)(CN)CC2)cc(=O)n1-c1cccc(Cl)c1Cl [Compound 28, 6-[4-(aminomethyl)-4-hydroxypiperidin-1-yl]-3-(2,3-dichlorophenyl)-2-methyl-3,4-dihydropyrimidin-4-one]
< 5.00 | Cc1nc(N2CCN3C(=O)C(N)CC3C2)cc(=O)n1-c1cccc(Cl)c1Cl (centres unmarked) [Compound 61, 6-7-amino-6-oxo-octahydropyrrolo[1,2-a]pyrazin-2-yl-3-(2,3-dichlorophenyl)-2-methyl-3,4-dihydropyrimidin-4-one]
5.89 | Cc1c(N2CCC3(CC2)CC3N)nc(C)n(-c2cccc(Cl)c2Cl)c1=O (centres unmarked) [Compound 89, 6-1-amino-6-azaspiro[2.5]octan-6-yl-3-(2,3-dichlorophenyl)-2,5-dimethyl-3,4-dihydropyrimidin-4-one]
< 5.00 | Cc1nc(N2CCC(C)(CN)CC2)cc(=O)n1-c1c(F)ccc(Cl)c1Cl (single isomer, unassigned) [Compound 33a, (3P)-6-[4-(aminomethyl)-4-methylpiperidin-1-yl]-3-(2,3-dichloro-6-fluorophenyl)-2-methyl-3,4-dihydropyrimidin-4-one]
5.92 | Cc1c(N2CCCC(C)(CN)CC2)nc(C)n(-c2cccc(Cl)c2Cl)c1=O (centres unmarked) [Compound 107, (3M)-6-[4-(aminomethyl)-4-methylazepan-1-yl]-3-(2,3-dichlorophenyl)-2,5-dimethyl-3,4-dihydropyrimidin-4-one]
< 5.00 | Cc1c(N2CCC(C)(N)CC2)ncn(-c2cccc(Cl)c2Cl)c1=O [Compound 70, 6-(4-Amino-4-methyl-piperidin-1-yl)-3-(2,3-dichloro-phenyl)-5-methyl-3H-pyrimidin-4-one]
4.92 | Cc1nc(N2CCC(C)(N)CC2)c(C2CC2)c(=O)n1-c1cccc(Cl)c1Cl [Compound 93, 6-(4-Amino-4-methyl-piperidin-1-yl)-5-cyclopropyl-3-(2,3-dichloro-phenyl)-2-methyl-3H-pyrimidin-4-one]
6.23 | Cc1c(N2CCC3(CC2)CO[C@@H](C)[C@H]3N)nc(C)n(-c2ccc3ccccc3c2Cl)c1=O [Compound 52, 6-((3S,4S)-4-Amino-3-methyl-2-oxa-8-aza-spiro[4.5]dec-8-yl)-3-(1-chloro-naphthalen-2-yl)-2,5-dimethyl-3H-pyrimidin-4-one]
< 5.00 | Cc1nc(N2CCC3(CC2)CO[C@@H](C)[C@H]3N)c(C(C)C)c(=O)n1-c1cccc(Cl)c1Cl (atropisomer, axis not shown) [Compound 49a, (3P)-6-[(3S,4S)-4-amino-3-methyl-2-oxa-8-azaspiro[4.5]decan-8-yl]-3-(2,3-dichlorophenyl)-2-methyl-5-(propan-2-yl)-3,4-dihydropyrimidin-4-one]

Compound | pIC50
Cc1c(N2CCC(C)(N)CC2)nc(C)n(-c2cccc(Cl)c2Cl)c1=O [Compound 12, 6-(4-amino-4-methylpiperidin-1-yl)-3-(2,3-dichlorophenyl)-2,5-dimethyl-3,4-dihydropyrimidin-4-one] | 6.00
(3M)-6-[(3aR,6aS)-3a-(aminomethyl)-5- (hydroxymethyl)- octahydrocyclopenta[c]pyrrol-2-yl]-3- (2,3-dichlorophenyl)-2,5-dimethyl-3,4- dihydropyrimidin-4-one [Compound 101] | 6.64
COc1c(N2CCC3(CC2)CO[C@@H](C)[C@H]3N)nc(C)n(-c2cccc(Cl)c2Cl)c1=O (single isomer, unassigned) [Compound 73a] | < 5.00
